Data taken from patent US9580414B2, “Salts and hydrates of antipsychotics” (SHASUN PHARMACEUTICALS LIMITED, priority 2012, dated 2017).
Several values for one entry are separate records, joined by “and”; a condition that tells them apart may be missing. Equal values may be shown once. Where a name gives a salt, the structure may show the parent alone. Read-outs that look alike come from different tables or passages of the source. Each block holds one compound with its values, some of them ahead of it.

Legend:
[1] = Comparative solubility study in McIlvaine Buffer pH 3.8; format: physicochemical
Description: The solubility study was performed for the dihydrochloride salt of the present invention using the McIlvaine Buffer pH 3.8.

[2] = Single dose oral pharmacokinetics comparative study of Lurasidone monohydrochloride v. dihydrochloride; format: in vivo; settings: 10 mg/kg, mean plasma, oral gavage, male Sprague Dawley rats
Description: Lurasidone salts mean plasma PK parameters were quantified with an API 3200 LC-MS/MS system and illustrated in Table 1.
Male Sprague Dawley rats aged 6-8 weeks and weighing 180-220 g will be used for experiment. Animals will be acclimatized for a minimum period of 5 days. Overnight fasted animals were administered the test substance by oral gavage with a dose equivalent dose of 10 mg/kg of the parent compound with ready to use formulation provided and at a dose volume of 10.06 & 9.6 mL/kg b.w. With mild inhalation anesthesia (Isoflurane), blood samples (200-250 μL) were collected by retro-orbital route at specified time points. Lurasidone hydrochloride and dihydrochloride samples were administered by oral route at a dose volume of 10.06 & 9.6 mL/kg body weight respectively. The actual dosage volume for each animal were calculated based on the fasted body weight. All the animals were administered a single dose on the day of experiment. Blood samples were collected in pre-labeled centrifuge tubes containing anticoagulant (K2EDTA). Blood sampling time points for both the groups were as follows Group 1 & 2—Subgroup 1 (n=5)—0.08, 0.16, 0.33, 0.5, 0.67, 0.83, 1.00 & Subgroup 2 (n=5)—1.5, 2, 3, 6, 12, 18, 24 h. All the animals were administered a single dose on the day of experiment. Blood samples were centrifuged at 4000 rpm at 4° C. for 10 minutes and the corresponding plasma samples were harvested into pre-labeled tubes. Plasma samples will be stored at −80° C. until analysis. The blood samples were centrifuged at 4000 rpm for 10 minutes at 4° C. and the corresponding plasma samples were transferred to clean pre-labeled tubes and stored at −80° C. until analysis.

[3] = Stability by storage under accelerated stability testing conditions; format: physicochemical; settings: storage at 40° C., 75% RH and 50° C., 90% RH
[4] = Solubility assayed in water; format: physicochemical; settings: water and mixtures of water with water-miscible solvents; qualitative
Description: In particular, the solubility of the compounds of the present invention in comparison with hydrochloride was assayed in water and recorded.

[5] = Comparative solubility study in McIlvaine Buffer pH 3.8; format: physicochemical; remark: listed apart in the source
[6] = cited from earlier work
[7] = in vivo; cited from earlier work
[8] = male, Sprague Dawley, rat, plasma, po
[9] = listed as Monohydrochloride, hydrochloride

Solubility (mg/ml) Avg. ([1]; average of sample 1 and 2, dihydrochloride dihydrate): 0.6472 mg/mL and 0.9020 mg/mL
Solubility (mg/ml) Sample 1 ([1]; sample 1, dihydrochloride dihydrate): 0.7220 mg/mL and 0.9548 mg/mL
Solubility (mg/ml) Sample 2 ([1]; sample 2, dihydrochloride dihydrate): 0.5724 mg/mL and 0.8498 mg/mL
AUC(0-inf) [2, 8]: 577 ng·h/mL
AUC(0-t) [2, 8]: 570 ng·h/mL
Cmax ([2]; male, Sprague Dawley, rat, plasma, po, read-out: Cmax): 659 ng/mL
AUCextrap ([2]; dihydrochloride dihydrate): 1.29%
MRTlast ([2]; dihydrochloride dihydrate): 1.05 h
T1/2 ([2]; dihydrochloride dihydrate): 1.07 h
stability profile [3]: excellent stability profile
solubility in water [4]: excellent solubility
SMILES: O=C1[C@@H]2[C@H]3CC[C@H](C3)[C@@H]2C(=O)N1C[C@@H]1CCCC[C@H]1CN1CCN(c2nsc3ccccc23)CC1 [Di HCl Salt, (3aR,4S,7R,7aS)-2-{(1R,2R)-2-[4-(1,2-benzisothiazol-3-yl)piperazin-1-ylmethyl]cyclohexylmethyl}hexahydro-4,7-methano-2H-isoindole-1,3-dione dihydrochloride dihydrate]

MRT last [2, 8]: 0.95 h
half-life [2, 8]: 1.19 h
AUCextrap [2, 9]: 1.37%
AUCinf [2, 9]: 357.32 ng·h/mL
AUClast [2, 9]: 352.41 ng·h/mL
Cmax [2, 9]: 412.39 ng/mL
Tmax ([2]; rat): 0.33 h
Solubility (mg/ml) Avg. ([5]; average of sample 1 and 2, hydrochloride): 0.2126 mg/mL
solubility ([5]; listed as Lurasidone hydrochloride): less than 0.212 mg/ml
solubility ([5]; listed as mono hydrochloride salt): around 0.212 mg/ml
Solubility (mg/ml) Sample 1 ([5]; sample 1, hydrochloride): 0.2104 mg/mL
Solubility (mg/ml) Sample 2 ([5]; sample 2, hydrochloride): 0.2148 mg/mL
SMILES: O=C1[C@@H]2[C@H]3CC[C@H](C3)[C@@H]2C(=O)N1C[C@@H]1CCCC[C@H]1CN1CCN(c2nsc3ccccc23)CC1 [Mono HCl Salt, (3aR,4S,7R,7aS)-2-[((1R,2R)-2-{[4-(1,2-benzisothiazol-3-yl)-piperazin-1-yl]methyl}cyclohexyl)methyl]hexahydro-1H-4,7-methanisoindol-1,3-dione hydrochloride]
solubility in 0.1 N HCl ([6]; 0.1 N HCl): practically insoluble
solubility in water ([6]; water): very slightly soluble
bioavailability [7]: less than 12%
